pIC50: −log10 of the molar value.

For one assay, the target named is T1, PDK1 (Homo sapiens, UniProt O15530).
T1 construct: His6 (N)
T1 sequence (O15530 51-556): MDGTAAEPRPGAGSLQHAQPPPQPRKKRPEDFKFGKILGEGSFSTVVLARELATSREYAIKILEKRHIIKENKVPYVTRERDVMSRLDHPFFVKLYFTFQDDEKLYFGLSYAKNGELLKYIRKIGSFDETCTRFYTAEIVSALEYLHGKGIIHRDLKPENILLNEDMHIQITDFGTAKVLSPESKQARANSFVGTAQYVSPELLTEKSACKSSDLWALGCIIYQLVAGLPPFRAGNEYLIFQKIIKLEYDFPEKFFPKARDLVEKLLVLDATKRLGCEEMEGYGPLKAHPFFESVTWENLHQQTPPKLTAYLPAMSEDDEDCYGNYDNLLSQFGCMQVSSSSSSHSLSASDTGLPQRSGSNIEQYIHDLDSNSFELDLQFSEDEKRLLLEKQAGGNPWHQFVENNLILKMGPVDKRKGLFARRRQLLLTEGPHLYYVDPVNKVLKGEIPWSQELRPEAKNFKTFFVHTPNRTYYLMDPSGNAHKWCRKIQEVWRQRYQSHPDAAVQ
Kind of assay: Test for the inhibition of PDK1 (flashplate, 33P-ATP). Type of assay: biochemical.
Conditions: not given
Here is the method: NO.: 1, (400 Nm), 4 μm ATP (with 0.2 μCi of ^33P-ATP/well) and the test substance in 50 μl of conventional experimental solution per well are incubated at 30° C. for 60 min. The test substances are employed in corresponding concentrations (if desired in a dilution series). The control is carried out without test substance. The reaction is stopped using standard methods and washed. The activity of the kinase is measured via the incorporated radioactivity in top count. In order to determine the non-specific kinase reaction (blank value), the experimental batches are carried out in the presence of 100 nM staurosporin.
The radioactivity (decompositions per minute) of the blank value (no use of test substance in the presence of staurosporin) is subtracted from all other radioactivity values. The controls (kinase activity without test substance) are set equal to 100 percent and all other radioactivity values (after subtracting the blank value) are expressed set in relation thereto (for example in % of the control).
As usually defined, the pIC50 is the negative decadic logarithm of the IC50, by convention in mol/L. For `CCc1cc(-c2c[nH]c3ncc(-c4cn[nH]c4)cc23)nc(N)n1` [Compound A60, 4-Ethyl-6-[5-(1H-pyrazol-4-yl)-1H-pyrrolo[2,3-b]pyridin-3-yl]pyrimidin-2-ylamine], the negative logarithm of the IC50 (pIC50) was 6.00 to 8.00.

Still in this assay, the particulars now being: His6-PDK1(Δ1-50) 3.4 nM; 30° C., 60 min; read-out: IC50 PDK1.
As for `CCc1cc(-c2c[nH]c3ncc(-c4cnn(CCOC)c4)cc23)nc(N)n1` [Compound A56, 4-Ethyl-6-{5-[1-(2-methoxyethyl)-1H-pyrazol-4-yl]-1H-pyrrolo[2,3-b]pyridin-3-yl}pyrimidin-2-ylamine], the pIC50 is 6.00 to 8.00.

For the molecule `CCc1cc(-c2c[nH]c3ncc(-c4ccco4)cc23)nc(N)n1` [Compound A49, 4-Ethyl-6-(5-furan-2-yl-1H-pyrrolo[2,3-b]pyridin-3-yl)pyrimidin-2-ylamine], the pIC50 is 6.00 to 8.00. In the case of `CCc1cc(-c2c[nH]c3ncc(-c4ccc(N)nc4)cc23)nc(N)n1` [Compound A48, 4-[5-(6-Aminopyridin-3-yl)-1H-pyrrolo-[2,3-b]pyridin-3-yl]-6-ethylpyrimidin-2-ylamine], the negative logarithm of the IC50 (pIC50) was 6.00 to 8.00. The same measure, in the same setting: as for `CCc1cc(-c2c[nH]c3ncc(-c4cnn(C)c4)cc23)nc(N)n1` [Compound A45, 4-ethyl-6-[5-(1-methyl-1H-pyrazol-4-yl)-1H-pyrrolo[2,3-b]pyridin-3-yl]pyrimidin-2-ylamine], the figure is 6.00 to 8.00. Still for that read-out and setting: as for `NCCCc1cc(-c2c[nH]c3ncc(-c4ccco4)cc23)nc(N)n1` [Compound A43, 4-(3-Aminopropyl)-6-(5-furan-2-yl-1H-pyrrolo[2,3-b]pyridin-3-yl)pyrimidin-2-ylamine], the figure is 6.00 to 8.00; as for `NCCCc1cc(-c2c[nH]c3ncccc23)nc(N)n1` [Compound A16, 4-(3-Aminopropyl)-6-(1H-pyrrolo[2,3-b]pyridin-3-yl)pyrimidin-2-ylamine], 6.00 to 8.00.

In the case of “4-(3-aminopropyl)-6-[5-(1-methyl-1H-pyrazol-4-yl)-1H-pyrrolo[2,3-b]pyridin-3-yl]pyrimidin-2-ylamine [Compound A42]”, the pIC50 was 6.00 to 8.00. For the molecule `CCc1cc(-c2c[nH]c3ncc(Br)cc23)nc(N)n1` [Compound A32], the negative logarithm of the IC50 (pIC50) was 6.00 to 8.00. Still for that read-out and setting: as for `CCc1cc(-c2c[nH]c3ncc(-c4cnn(CC(C)C)c4)cc23)nc(N)n1` [Compound A66, 4-Ethyl-6-[5-(1-isobulyl-1H-pyrazol-4-yl)-1H-pyrrolo[2,3-b]pyridin-3-yl]-pyrimidin-2-ylamine], the figure is 6.00 to 8.00.

The next assay has as its system A2780 (ovary). Kind of assay: Inhibition of the proliferation/vitality of tumour cells (Alamar Blue test). Type of assay: cell-based. The settings on record: Homo sapiens, 96 h, A2780 ovary cell line, 4 days cultivation with test substance. The procedure: In the present experiment description, the inhibition of tumour cell proliferation/tumour cell vitality by active ingredients is described. The cells are sown in a suitable cell density in microtitre plates (96-well format) and the test substances are added in the form of a concentration series. After four further days of cultivation in serum-containing medium, the tumour cell proliferation/tumour cell vitality can be determined by means of an Alamar Blue test system.
The cells are cultivated in medium. At intervals of several days, the cells are detached from the culture dishes with the aid of trypsin solution and sown in suitable dilution in fresh medium. The cells are cultivated at 37° Celsius and 10% CO2.
A defined number of cells (for example 2000 cells) per culture/well in a volume of 180 μl of culture medium are sown in microtitre plates (96 well cell-culture plates) using a multichannel pipette. The cells are subsequently cultivated in a CO2 incubator (37° C. and 10% CO2).
The test substances are dissolved, for example, in DMSO and subsequently employed in corresponding concentration (if desired in a dilution series) in the cell culture medium. The dilution steps can be adapted depending on the efficiency of the active ingredients and the desired spread of the concentrations. Cell culture medium is added to the test substances in corresponding concentrations. The addition of the test substances to the cells can take place on the same day as the sowing of the cells. To this end, in each case 20 μl of substance solution from the predilution plate are added to the cultures/wells. The cells are cultivated for a further 4 days at 37° Celsius and 10% CO2.
In each case, 20 μl of Alamar Blue reagent are added per well, and the microtitre plates are incubated, for example, for a further seven hours in a CO2 incubator (at 37° C. and 10% CO2). The plates are measured in a reader with a fluorescence filter at a wavelength of 540 nm. The plates can be shaken gently immediately before the measurement.
The absorbance value of the medium control (no cells and test substances used) is subtracted from all other absorbance values. The controls (cells without test substance) are set equal to 100 percent, and all other absorbance values are set in relation thereto (for example in % of control): Calculation:
IC50 values (50% inhibition) are determined with the aid of statistics programs, such as, for example, RS1.
Background: Resazurin is reduced to fluorescent resorufin, in cell work by metabolically active cells.
`CCc1cc(-c2c[nH]c3ncccc23)nc(N)n1` [Compound A5, 4-ethyl-6-(1H-pyrrolo[2,3-b]pyridin-3-yl)pyrimidin-2-ylamine] gave a pIC50 of 6.00 to 8.00.

With `CCCc1cc(-c2c[nH]c3ncccc23)nc(N)n1` [Compound A3, 4-Propyl-6-(1H-pyrrolo[2,3-b]pyridin-3-yl)pyrimidin-2-ylamine], the pIC50 was 6.00 to 8.00. `CCCCCc1cc(-c2c[nH]c3ncccc23)nc(N)n1` [Compound A6, 4-Pentyl-6-(1H-pyrrolo[2,3-b]pyridin-3-yl)pyrimidin-2-ylamine] gave a pIC50 of 5.00 to 6.00. In turn, `CCCC1CCC(c2cc(-c3c[nH]c4ncccc34)nc(N)n2)CC1` (stereo not shown) [Compound A8] had a negative-log IC50 (pIC50) of 5.00 to 6.00. The same measure, in the same setting: the figure for `CCCCc1cc(-c2c[nH]c3ncccc23)nc(N)n1` [Compound A1, 4-butyl-6-(1H-pyrrolo[2,3-b]pyridin-3-yl)pyrimidin-2-ylamine] is 6.00 to 8.00; for `Nc1nc(-c2ccccc2)cc(-c2c[nH]c3ncccc23)n1` [Compound A2, 4-Phenyl-6-(1H-pyrrolo[2,3-b]pyridin-3-yl)pyrimidin-2-ylamine] it is 6.00 to 8.00.

The record behind these values is patent publication US8546390B2, “6-(pyrrolopyridinyl) pyrimidin-2-ylamine derivatives and the use thereof for the treatment of cancer and AIDS” (Merck Patent GmbH, priority 2008, dated 2013).
